From patent publication US8815845B2, “1,4-benzodiazepine-2,5-diones and related compounds with therapeutic properties” (The Regents of the University of Michigan, priority 2009, dated 2014)

Tests used:
[1] = biological target: ROCK-I (h, amino acids 17-535) (Homo sapiens (Human), UniProt Q13464); assay: ROCK-I (h) inhibition assay; format: biochemical; details: read-out: ROCK1 IC50
Description: ROCK-I (h) Inhibition Assay:
In a final reaction volume of 25 μL, ROCK-I (h, amino acids 17-535) (5-10 mU) was incubated with 8 mM MOPS pH 7.0, 0.2 mM EDTA, 30 μM […], 10 mM magnesium acetate and [γ-^32P-ATP] (specific activity approx. 500 cpm/pmol, concentration as required). The reaction was initiated by the addition of the MgATP mix. After incubation for 40 minutes at room temperature, the reaction was stopped by the addition of 5 μL of a 3% phosphoric acid solution. 10 μL of the reaction was then spotted onto a P30 filtermat and washed three times for 5 minutes in 75 mM phosphoric acid and once in methanol prior to drying and scintillation counting.

[2] = biological target: ROCK-II (h, amino acids 11-552) (Homo sapiens (Human), UniProt O75116); assay: ROCK-II (h) inhibition assay; format: biochemical; details: read-out: ROCK2 IC50
Chain of ROCK-II (h, amino acids 11-552) (O75116 11-552): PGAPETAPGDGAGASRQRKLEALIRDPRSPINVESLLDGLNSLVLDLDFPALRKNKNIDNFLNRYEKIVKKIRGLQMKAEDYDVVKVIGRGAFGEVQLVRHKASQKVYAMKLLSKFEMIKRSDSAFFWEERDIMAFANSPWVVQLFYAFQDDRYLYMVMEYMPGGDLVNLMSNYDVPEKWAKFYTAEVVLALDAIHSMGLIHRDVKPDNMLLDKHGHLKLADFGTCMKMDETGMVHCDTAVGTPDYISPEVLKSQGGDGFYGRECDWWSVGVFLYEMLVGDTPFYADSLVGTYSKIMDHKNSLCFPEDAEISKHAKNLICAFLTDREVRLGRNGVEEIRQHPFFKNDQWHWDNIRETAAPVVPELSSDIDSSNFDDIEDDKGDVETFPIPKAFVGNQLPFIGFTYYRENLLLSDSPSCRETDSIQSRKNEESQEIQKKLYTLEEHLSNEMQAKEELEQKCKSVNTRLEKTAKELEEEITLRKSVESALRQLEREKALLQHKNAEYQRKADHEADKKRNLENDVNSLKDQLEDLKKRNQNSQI
Description: ROCK-II (h) Inhibition Assay:
In a final reaction volume of 25 μL, ROCK-II (h, amino acids 11-552) (5-10 mU) was incubated with 50 mM Tris pH 7.5, 0.1 mM EGTA, 30 [μM […], 10 mM magnesium acetate and γ-^32P-ATP] (specific activity approx. 500 cpm/pmol, concentration as required). The reaction was initiated by the addition of the MgATP mix. After incubation for 40 minutes at room temperature, the reaction was stopped by the addition of 5 μL of a 3% phosphoric acid solution. 10 μL of the reaction was then spotted onto a P30 filter-mat and washed three times for 5 minutes in 75 mM phosphoric acid and once in methanol prior to drying and scintillation counting.

Chain of ROCK-I (h, amino acids 17-535) (Q13464 17-535): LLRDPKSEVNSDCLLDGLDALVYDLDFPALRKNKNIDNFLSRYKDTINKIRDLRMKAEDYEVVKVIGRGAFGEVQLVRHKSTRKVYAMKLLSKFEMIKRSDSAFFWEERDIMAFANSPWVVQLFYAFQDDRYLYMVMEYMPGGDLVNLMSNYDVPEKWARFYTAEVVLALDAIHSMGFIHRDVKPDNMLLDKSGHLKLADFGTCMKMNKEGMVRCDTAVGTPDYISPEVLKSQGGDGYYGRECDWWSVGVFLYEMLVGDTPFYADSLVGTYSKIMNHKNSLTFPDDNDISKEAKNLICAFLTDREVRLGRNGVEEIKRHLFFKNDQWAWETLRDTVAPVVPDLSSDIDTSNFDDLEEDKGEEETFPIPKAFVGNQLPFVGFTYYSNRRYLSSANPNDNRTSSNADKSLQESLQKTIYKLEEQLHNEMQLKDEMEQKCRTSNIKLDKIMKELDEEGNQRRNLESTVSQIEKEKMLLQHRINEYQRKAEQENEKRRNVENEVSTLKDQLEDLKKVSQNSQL

For `CN1C(=O)[C@@H](Cc2ccc(-c3cn[nH]c3)cc2)NC(=O)c2cc(Cl)ccc21` [Compound 1, (R)-3-(4-(1H-pyrazol-4-yl)benzyl)-7-chloro-1-methyl-3,4-dihydro-1H-benzo[e][1,4]diazepine-2,5-dione], the IC50 [1] was > 30000 nM and the IC50 [2] was 1000 nM.
`COc1ccc2c(c1)C(=O)N[C@@H](Cc1ccc(-c3ccnc4[nH]ccc34)cc1)C(=O)N2C` [Compound 5, (S)-3-(4-(1H-pyrrolo[2,3-b]pyridin-4-yl)benzyl)-7-methoxy-1-methyl-3,4-dihydro-1H-benzo[e][1,4]diazepine-2,5-dione] was tested, and the IC50 [1] was 2800 nM and the IC50 [2] was 200 nM.
`CN1C(=O)[C@@H](Cc2ccc(-c3ccnc(N)c3)cc2)NC(=O)c2cc(Cl)ccc21` [Compound 2, (R)-3-(4-(2-aminopyridin-4-yl)benzyl)-7-chloro-1-methyl-3,4-dihydro-1H-benzo[e][1,4]diazepine-2,5-dione] was tested, and the IC50 [1] was > 10000 nM and the IC50 [2] was 7100 nM.
In the case of `COc1ccc2c(c1)C(=O)N[C@@H](Cc1ccc(-c3ccnc(N)c3)cc1)C(=O)N2C` [Compound 3, (S)-3-(4-(2-aminopyridin-4-yl)benzyl)-7-methoxy-1-methyl-3,4-dihydro-1H-benzo[e][1,4]diazepine-2,5-dione], the IC50 [1] is reported as > 10000 nM and the IC50 [2] is reported as 2400 nM.
For `CN1C(=O)[C@H](Cc2ccc(-c3ccnc4[nH]ccc34)cc2)NC(=O)c2cc(Cl)ccc21` [Compound 4, (S)-3-(4-(1H-pyrrolo[2,3-b]pyridin-4-yl)benzyl)-7-chloro-1-methyl-3,4-dihydro-1H-benzo[e][1,4]diazepine-2,5-dione], the IC50 [1] was 5100 nM and the IC50 [2] was 250 nM.
